Experimental data reported in patent US9669004B2 (THE ADMINISTRATORS OF THE TULANE EDUCATIONAL FUND, priority 2010, dated 2017).
“Also recorded” adds a separate entry of the source.

How the values were obtained:
MCF-7 cell tumorigenesis = experiment: estrogen stimulated MCF-7 cell tumorigenesis xenograft model; assay type: in vivo, Nu/Nu mice; details: day 37 post cell injection; mean±SEM; control 351.17±43.88
Procedure: 4-6 week old ovariectomized female Nu/Nu mice were injected bilaterally in the mammary fat pad (MFP) with 5×10^6 MCF-7 cells in matrigel (reduced factor). […] Tumors were allowed to form and at day 15 post cell injection mice were randomized into groups (n=5). Animals were treated daily with i.p. injections of either vehicle (1:5 DMSO/PBS) or analog 2 (50 mg/kg/animal). Tamoxifen animals were implanted with a slow release tamoxifen pellet in the lateral area of the neck (opposite side from E2 pellet). ICI animals were given a onetime i.p. injection of ICI 182,780 (5 mg in castor oil). Tumor size was measured 3 times weekly using digital calipers. Data represented as mean tumor volume±SEM.
Due to the anti-estrogenic effects of analog 2 on MCF-7 cells observed in the in vitro biological assays, this analog was selected for further testing of estrogen stimulated MCF-7 cell tumorigenesis using a xenograft model. Ovariectomized female immunocompromised mice were injected with MCF-7 cells and supplemented with exogenous estrogen pellets. Once tumors were palpable animals were treated with analog 2, tamoxifen, or ICI and tumor volume compared to vehicle control animals.
Xenograft experiments were conducted using previously published protocols. Briefly, 4-6 week old female ovariectomized NU/Nu mice were obtained from Charles River Laboratories (Wilmington, Mass.). The animals were allowed a period of adaptation in a sterile and pathogen-free environment with phytoestrogen-free food and water ad libitum. MCF-7 cells were harvested in the exponential growth phase using a PBS/EDTA solution and washed. Mice were injected bilaterally in the mammary fat pad (M.F.P) with 5×10^6 viable cells suspended in 50 μL sterile PBS mixed with 100 μL Matrigel (reduced factor; BD Biosciences, Bedford, Mass.). […] All procedures in animals were carried out under anesthesia using a mix of isofluorane and oxygen delivered by mask. […] Tumor size was measured 3 times weekly using digital calipers. The volume of the tumor was calculated using the following formula: 4/3 πLS^2 (L=larger radius; S=shorter radius). […]

MCF-7 cells = experiment: clonogenic (colony) assay; assay type: cell-based
Procedure: MCF-7 cells were placed in phenol red-free DMEM supplemented with 5% dextran-coated charcoal-treated FBS for 48 h before plating. MCF-7 cells (1000) were plated in six well plates. […] Colonies of >50 cells were counted as positive. Results are normalized to percentage of clonogenic survival from DMSO control cells.

MDA-MB-231 cells = experiment: MDA-MB-231 xenograft tumor volume; assay type: in vivo, CB-17/SCID mice
Procedure: 4-6 week old female CB-17/SCID mice were allowed a period of adaptation in a sterile and pathogen-free environment with phytoestrogen-free food and water ad libitum. MDA-MB-231 cells were harvested in the exponential growth phase using a PBS/EDTA solution and washed. Mice were injected bilaterally in the mammary fat pad (MFP) with 5×10^6 viable cells suspended in 50 μL sterile PBS mixed with 100 μL Matrigel (reduced factor; BD Biosciences, Bedford, Mass.). Tumors were allowed to form, and at day 4 post cell injection mice were randomized into groups of 5 mice each. Mice were treated daily with intra-peritoneal (IP) injections of either vehicle (DMSO) or analog 2 (50 mg/kg/animal/day) for 14 days. External tumor size was measured using digital calipers and tumor volume calculated using the formula: 4/3 π LS^2 (L=larger radius; S=shorter radius). At necropsy, animals were euthanized by cervical dislocation after exposure to CO2. […] This trend continued until the mice were euthanized at day 18, where tumor volume for control mice averaged 188±18.78 mm^3 and the tumor volume for mice treated with analog 2 averaged 91.11±10.15 mm^3.

MDA-MB-157 = experiment: transwell migration assay; assay type: cell-based; details: 10 μM, 24 hours
Procedure: (§1) TNBC cells were seeded (2.5×10^4 in 500 μl 10% DMEM) in the upper chamber of a 24 well transwell system. DMEM supplemented with FBS (10%) was used as a chemoattractant in the lower wells. After 24 hours of treatment (DMSO or analog 2 10 μM), membranes were scrubbed, stained with 0.1% crystal violet, and the number of migrated cells analyzed by microscopy. Data represented as normalized means of triplicate experiments±SEM. […] The TNBC phenotype is characterized by highly aggressive and migratory cells. The ability of analog 2 to inhibit this migration indicates its potential as a novel anti-metastatic therapeutic in the triple-negative breast carcinoma setting.

MDA-MB-231 = experiment: transwell migration assay; assay type: cell-based; details: 10 μM, 24 hours
Procedure: as §1

BT-549 = experiment: transwell migration assay; assay type: cell-based; details: 10 μM, 24 hours
Procedure: as §1

[1] = test system: E2 stimulation on ERE transcriptional activity in MCF-7 cells; experiment: ERE luciferase reporter gene assay in the presence of 0.1 nM E2, antiestrogenic activity; assay type: cell-based; details: for inhibition at 25 µM: Homo sapiens, MCF7, 25 μM (highest concentration) plus 0.1 nM E2, read-out: reduction of estradiol-dependent luciferase activity
Procedure: MCF-7 cells were transiently transfected with pGL2-ERE2x-TK-luciferase plasmid. […] The luciferase activities of the treated cells were then measured by the ERE reporter gene assay.

[2] = test system: progesterone receptor (PgR) gene expression in MCF-7 cells; experiment: PgR mRNA expression by quantitative real time RT-PCR; assay type: cell-based; details: for level of PgR expression: ligand in the presence of 0.1 nM E2, MCF-7 (E2 alone 5-fold); for increase in PgR expression compared with control: ligands only, vs DMSO
From the text: Total RNA was isolated from MCF-7 cells, reverse-transcribed into cDNA and subjected to real-time RT-PCR analysis for quantification. […] Results are expressed as the mean unit±SEM.

[3] = test system: ERE transcriptional activity in MCF-7 cells; experiment: ERE luciferase reporter gene assay, estrogenic activity; assay type: cell-based; details: for estrogenic (ERE) activity, in words: MCF-7, compound alone; for ERE transcriptional activity induced: 25 μM
Procedure: MCF-7 cells were transiently transfected with pGL2-ERE2x-TK-luciferase plasmid. […] While this order varied slightly as analog concentrations were increased further to 25 μM, several trends have emerged in the dose-dependent data. […] Second, shorter alkyl groups appear to have less effect on the reduction of ER agonist activity than their longer, bulkier counterparts.

[4] = test system: AKT and mTOR phosphorylation in MDA-MB-231 cells; experiment: immunoblot of phospho-AKT and mTOR; assay type: cell-based
Procedure: The effects of analog 2 on TNBC may be mediated via alterations in the PI3K/AKT/mTOR pathway. After 72 hours in 5% charcoal-stripped fetal bovine serum (CSFBS) DMEM phenol-free medium, MDA-MB-231 cells were re-fed with either medium-containing vehicle, analog 2 (10 μM, 4 hours), analog 2 (4 hours) followed by EGF stimulation (50 ng/mL, 30 minutes), or EGF alone (30 minutes). Membranes were probed with primary antibodies according to manufacturers' protocol. Antibodies: phosho-AKT (S473 and T308), mTOR ([…]), and corresponding total protein antibodies (Cell Signaling), using rho as a loading control (Santa Cruz).

## C[C@]12CC[C@@H]3c4ccc(O)cc4C[C@@H](CCCCCCCCC[S+]([O-])CCCC(F)(F)C(F)(F)F)[C@H]3[C@@H]1CC[C@@H]2O (stereo partly drawn) [ICI 182,780]
MCF-7 cell tumorigenesis
  tumor volume: 130.95±23.49 mm3

## CC1(C)C=Cc2c(ccc3c(=O)c(-c4ccc(O)cc4)coc23)O1 [compound 2, 3-(4-Hydroxyphenyl)-8,8-dimethyl-8H-pyrano[2,3-f]chromen-4-one]
MCF-7 cells; 10 μM plus 0.1 nM estradiol
  clonogenicity in the presence of E2, in words: inhibit the clonogenicity of MCF-7 cells completely
MCF-7 cells; 10 μM, without E2
  cell clonogenicity, in words: completely blocked cell clonogenicity
MCF-7 cells; Homo sapiens, MCF7, read-out: inhibition of clonogenicity
  inhibition at 1 µM: 15%
MDA-MB-231 cells; day 18, 50 mg/kg/animal/day IP for 14 days, control 188±18.78
  tumor volume: 91.11±10.15 mm^3
MDA-MB-231 cells; seven days after cell injection, three days' treatment
  tumor volume vs control, in words: statistically less than those of control mice
MDA-MB-157
  number of migrated cells compared to control (normalized to 100%): 25.57%
MDA-MB-231
  number of migrated cells compared to control (normalized to 100%): 0%
BT-549
  number of migrated cells compared to control (normalized to 100%): 0.08%
MCF-7 cell tumorigenesis
  tumor volume: 241.53±68.29 mm3
[1]; 25 μM plus 0.1 nM E2
  blocking of ERE activity, in words: completely blocking ERE activity
[2]
  level of PgR expression: 3 fold
[2]; ligand only, MCF-7
  PgR expression compared with DMSO, in words: decrease in PgR expression
[3]
  estrogenic (ERE) activity, in words: little or no estrogen activity; also recorded: negligible ERE activity
[4]; 10 μM 4 hours then EGF 50 ng/mL 30 minutes
  effect on EGF-stimulated AKT and mTOR phosphorylation, in words: significantly abrogate the effects of EGF stimulation on AKT and mTOR phosphorylation
[4]; 10 μM, 4 hours
  phospho-levels of AKT at S473 and T308, in words: significant decreases

## CCCOc1ccc2c(=O)c(-c3ccc(O)cc3)coc2c1 [3c, 3-(4-Hydroxyphenyl)-7-propoxychromen-4-one]
[1]
  inhibition at 25 µM: < 47%
[3]; MCF-7, normalized to E2 (100)
  ERE transcriptional activity induced: 38.4%

## CC(C)COc1ccc2c(=O)c(-c3ccc(O)cc3)coc2c1 [3f, 3-(4-Hydroxyphenyl)-7-isobutoxychromen-4-one]
[1]
  inhibition at 25 µM: > 60%
[3]
  estrogenic (ERE) activity, in words: negligible ERE activity

## CC(C)Oc1ccc2c(=O)c(-c3ccc(O)cc3)coc2c1 [3d, 3-(4-Hydroxyphenyl)-7-isopropoxychromen-4-one]
[1]
  inhibition at 25 µM: > 60%

## CCCCCCOc1ccc2c(=O)c(-c3ccc(O)cc3)coc2c1 [3h, 7-Hexyloxy-3-(4-hydroxyphenyl)chromen-4-one]
[1]
  inhibition at 25 µM: < 47%

## CCOc1ccc2c(=O)c(-c3ccc(O)cc3)coc2c1 [3b, 3-(4-Hydroxyphenyl)-7-ethoxychromen-4-one]
[1]
  inhibition at 25 µM: < 47%
[3]; MCF-7, normalized to E2 (100)
  ERE transcriptional activity induced: 80.4%

## CC/C(=C(\c1ccccc1)c1ccc(OCCN(C)C)cc1)c1ccccc1 [tamoxifen]
MCF-7 cell tumorigenesis
  tumor volume: 178.12±41.18 mm3

## CCCCOc1ccc2c(=O)c(-c3ccc(O)cc3)coc2c1 [3e, 7-Butoxy-3-(4-hydroxyphenyl)chromen-4-one]
[1]
  inhibition at 25 µM: < 47%

## O=c1c(-c2ccc(O)cc2)coc2cc(O)ccc12 [daidzein, reference compound]
MCF-7 cells; 1 μM, without E2, vs DMSO
  increase in clonogenicity of MCF-7 cells: over 3 fold
MCF-7 cells; 10 μM, without E2, vs DMSO
  increase in clonogenicity of MCF-7 cells: 2.5 times
[2]
  level of PgR expression: 5 fold
[2]; MCF-7
  increase in PgR expression compared with control: 3 fold
[3]
  estrogenic (ERE) activity, in words: more potent estrogenic activity than any of its derivatives

## COc1ccc2c(=O)c(-c3ccc(O)cc3)coc2c1 [3a, 3-(4-Hydroxyphenyl)-7-methoxychromen-4-one]
MCF-7 cells; 1 μM, without E2, vs DMSO
  increase of cell proliferation (clonogenicity): 43%
MCF-7 cells; 10 μM, without E2, vs DMSO
  increase in clonogenicity of MCF-7 cells: 24%
[1]
  inhibition at 25 µM: < 47%
[2]
  level of PgR expression: 4 fold
[2]; MCF-7
  increase in PgR expression compared with control: 3 fold
[3]; 10 μM, MCF-7, normalized to E2 (100)
  ERE activity: 38%
[3]; MCF-7, normalized to E2 (100)
  ERE transcriptional activity induced: 70.9%

## O=c1c(-c2ccc(O)cc2)coc2cc(OC3CCCC3)ccc12 [3g, 7-Cyclopentyloxy-3-(4-hydroxyphenyl)chromen-4-one]
[1]
  inhibition at 25 µM: > 60%
[3]
  estrogenic (ERE) activity, in words: negligible ERE activity

## C[C@]12CC[C@@H]3c4ccc(O)cc4CC[C@H]3[C@@H]1CC[C@@H]2O [E2, 17β-estradiol, reference compound]
MCF-7 cells; 0.1 nM, vs DMSO treated controls
  increase in clonogenicity of MCF-7 cells: approximately 3 fold
[2]; MCF-7
  increase in PgR expression compared with control: 5 fold
